# Measurements published in ChEMBL document CHEMBL1201862, “PubChem BioAssay data set” (2004).
#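 Briefly, cells in 96-well plates were exposed to five compound concentrations for 48 h, and endpoints were estimated by linear interpolation. At the GI50, growth is halved.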 The source made the active and inactive calls. Cut-off read from the data, not from the text of the source: active = GI50 up to about 1.1 µM and inactive = higher.
# What was measured:
# Experiment in all cases: inhibition of tumour cell growth, NCI panel, 48 h
# T47D = test system: T47D
# SF-539 = test system: SF-539
# SK-MEL-5 = test system: SK-MEL-5
# MCF7 = test system: MCF7
# M14 = test system: M14
# NCI-H23 = test system: NCI-H23
# HT-29 = test system: HT-29
# UACC-62 = test system: UACC-62
# OVCAR-4 = test system: OVCAR-4
# MDA-MB-231 = test system: MDA-MB-231
# SK-OV-3 = test system: SK-OV-3
# PC-3 = test system: PC-3
# U-251 = test system: U-251
# OVCAR-3 = test system: OVCAR-3
# NCI-H522 = test system: NCI-H522
# SF-295 = test system: SF-295
# SNB-75 = test system: SNB-75
# SF-268 = test system: SF-268
# Malme-3M = test system: Malme-3M
# HCT-116 = test system: HCT-116
Compound,GI50 (T47D),GI50 (SF-539),GI50 (SK-MEL-5),GI50 (MCF7),GI50 (M14),GI50 (NCI-H23),GI50 (HT-29),GI50 (UACC-62),GI50 (OVCAR-4),GI50 (MDA-MB-231),GI50 (SK-OV-3),GI50 (PC-3),GI50 (U-251),GI50 (OVCAR-3),GI50 (NCI-H522),GI50 (SF-295),GI50 (SNB-75),GI50 (SF-268),GI50 (Malme-3M),GI50 (HCT-116)
O=c1ccc2nc3ccc(O)cc3oc-2c1,> 100 µM (inactive),4.7 µM (inactive),1.6 µM (inactive),5.07 µM (inactive),4.3 µM (inactive),3.56 µM (inactive),24 µM (inactive),2.7 µM (inactive),> 68.1 µM (inactive),> 100 µM (inactive),> 100 µM (inactive),4.69 µM (inactive),26.8 µM (inactive),10.5 µM (inactive),5.32 µM (inactive),8.49 µM (inactive),6.78 µM (inactive),28.8 µM (inactive),2.72 µM (inactive),16.4 µM (inactive)
O=C(O)c1cccc(S(=O)(=O)NCCO)c1,> 100 µM (inactive),> 100 µM (inactive),> 100 µM (inactive),> 100 µM (inactive),> 100 µM (inactive),> 100 µM (inactive),> 100 µM (inactive),> 100 µM (inactive),> 100 µM (inactive),> 100 µM (inactive),> 100 µM (inactive),> 100 µM (inactive),> 100 µM (inactive),> 100 µM (inactive),> 100 µM (inactive),> 100 µM (inactive),> 100 µM (inactive),> 100 µM (inactive),> 100 µM (inactive),> 100 µM (inactive)
O=C(Cc1ccccc1)N/N=C1\C(=O)Nc2ccccc21,63.2 µM (inactive),23.1 µM (inactive),95.9 µM (inactive),49.8 µM (inactive),> 100 µM (inactive),95.5 µM (inactive),> 100 µM (inactive),> 100 µM (inactive),> 100 µM (inactive),18.8 µM (inactive),> 100 µM (inactive),70.5 µM (inactive),61.1 µM (inactive),> 100 µM (inactive),48.1 µM (inactive),25.8 µM (inactive),37.2 µM (inactive),31.6 µM (inactive),> 100 µM (inactive),> 100 µM (inactive)
CC(C)(C)NC(NC(C)(C)C)=C(/C=C(/Cl)[N+](=O)[O-])[N+](=O)[O-],68.5 µM (inactive),38.3 µM (inactive),44.9 µM (inactive),4.46 µM (inactive),27.7 µM (inactive),42.7 µM (inactive),41.8 µM (inactive),42.6 µM (inactive),17.1 µM (inactive),> 100 µM (inactive),> 100 µM (inactive),45.6 µM (inactive),> 100 µM (inactive),20 µM (inactive),> 100 µM (inactive),> 100 µM (inactive),0.0395 µM (active),74.6 µM (inactive),10.3 µM (inactive),34.3 µM (inactive)
CC(=O)/N=C1\N/C(=C\c2ccc(Cl)cc2)C(=O)N1/C=C1\C(=O)Oc2ccccc2C1=O,> 100 µM (inactive),> 100 µM (inactive),47.2 µM (inactive),> 100 µM (inactive),> 100 µM (inactive),> 100 µM (inactive),> 100 µM (inactive),26.3 µM (inactive),> 100 µM (inactive),> 100 µM (inactive),> 100 µM (inactive),> 100 µM (inactive),61.1 µM (inactive),77.8 µM (inactive),78.9 µM (inactive),> 100 µM (inactive),27.5 µM (inactive),45.9 µM (inactive),> 100 µM (inactive),> 100 µM (inactive)
COc1cccc2c1CCc1c(-c3ccc(F)cc3)cc(-c3ccc4ccccc4n3)nc1-2,> 100 µM (inactive),> 100 µM (inactive),> 100 µM (inactive),> 100 µM (inactive),> 100 µM (inactive),> 100 µM (inactive),> 100 µM (inactive),> 100 µM (inactive),> 100 µM (inactive),> 100 µM (inactive),> 100 µM (inactive),> 100 µM (inactive),> 100 µM (inactive),> 100 µM (inactive),> 100 µM (inactive),> 100 µM (inactive),> 100 µM (inactive),> 100 µM (inactive),> 100 µM (inactive),> 100 µM (inactive)
Fc1cc2nc3n(c2cc1F)C(c1c(F)cccc1F)SC3 (stereo not given),37 µM (inactive),39.4 µM (inactive),17.3 µM (inactive),31.4 µM (inactive),30.5 µM (inactive),43.9 µM (inactive),34.8 µM (inactive),38.8 µM (inactive),42.1 µM (inactive),84.5 µM (inactive),42.7 µM (inactive),37.3 µM (inactive),57.3 µM (inactive),34.4 µM (inactive),24.9 µM (inactive),37.2 µM (inactive),31.4 µM (inactive),74 µM (inactive),50.8 µM (inactive),21.8 µM (inactive)
CN(C)CCNC(=O)c1cccc2nc3c4ccccc4c4ccccc4c3nc12,8.13 µM (inactive),1.72 µM (inactive),3.37 µM (inactive),1.14 µM (inactive),2.29 µM (inactive),1.87 µM (inactive),1.51 µM (inactive),2.35 µM (inactive),1.8 µM (inactive),1.82 µM (inactive),6.52 µM (inactive),1.65 µM (inactive),2 µM (inactive),3.44 µM (inactive),2.71 µM (inactive),2.16 µM (inactive),2.52 µM (inactive),0.569 µM (active),1.8 µM (inactive),1.53 µM (inactive)
Cc1ccc(C(=O)C(Cl)C(Cl)c2ccc(C)cc2)cc1 (stereo not given),2.08 µM (inactive),2.49 µM (inactive),2.34 µM (inactive),4.56 µM (inactive),4.71 µM (inactive),9.38 µM (inactive),2.12 µM (inactive),3.67 µM (inactive),2.33 µM (inactive),5.14 µM (inactive),15.2 µM (inactive),5 µM (inactive),3.46 µM (inactive),3.42 µM (inactive),2.52 µM (inactive),11.4 µM (inactive),8.22 µM (inactive),5.56 µM (inactive),15.3 µM (inactive),1.88 µM (inactive)
O=C(O)C1C2c3ccccc3C(c3ccccc32)C1C(=O)NCC1CC1 (stereo not given),56.8 µM (inactive),> 100 µM (inactive),66.8 µM (inactive),52.1 µM (inactive),61.9 µM (inactive),47.9 µM (inactive),71.6 µM (inactive),38.5 µM (inactive),79.1 µM (inactive),> 100 µM (inactive),56.2 µM (inactive),53.7 µM (inactive),47 µM (inactive),46.8 µM (inactive),29.9 µM (inactive),46.2 µM (inactive),84.5 µM (inactive),94.4 µM (inactive),> 100 µM (inactive),47.4 µM (inactive)
O=C(c1ccccc1)C(Nc1ccc2ccccc2c1)c1ccccc1 (stereo not given),11.3 µM (inactive),54.2 µM (inactive),16.9 µM (inactive),12.7 µM (inactive),31.3 µM (inactive),24.4 µM (inactive),24.5 µM (inactive),18.2 µM (inactive),38.1 µM (inactive),28.8 µM (inactive),40.7 µM (inactive),17.6 µM (inactive),21.9 µM (inactive),13.9 µM (inactive),6.98 µM (inactive),24.7 µM (inactive),33.5 µM (inactive),39.5 µM (inactive),30.2 µM (inactive),15.7 µM (inactive)
CN(C)c1ccc2nc(CC(O)(C(F)(F)F)C(F)(F)F)ccc2c1,> 10 µM (inactive),> 10 µM (inactive),> 10 µM (inactive),> 10 µM (inactive),> 10 µM (inactive),> 10 µM (inactive),> 10 µM (inactive),> 10 µM (inactive),> 10 µM (inactive),> 10 µM (inactive),> 10 µM (inactive),> 10 µM (inactive),> 10 µM (inactive),> 10 µM (inactive),> 10 µM (inactive),> 10 µM (inactive),> 10 µM (inactive),> 10 µM (inactive),> 10 µM (inactive),> 10 µM (inactive)
C=C1C(=O)OC2/C=C(\C)CC/C=C(\C)CC(OC(=O)/C(=C/CO)CO)[C@@H]12 (stereo not given in full),3.97 µM (inactive),12.2 µM (inactive),13 µM (inactive),4.46 µM (inactive),3.9 µM (inactive),13.7 µM (inactive),7.41 µM (inactive),17.7 µM (inactive),13.1 µM (inactive),13.7 µM (inactive),56 µM (inactive),16.9 µM (inactive),1.4 µM (inactive),5.7 µM (inactive),1.75 µM (inactive),70.8 µM (inactive),12.3 µM (inactive),20.7 µM (inactive),2.38 µM (inactive),3.27 µM (inactive)
COc1cccc2c1C(=O)c1c(O)c3c(c(O)c1C2=O)C[C@@](O)(C(=O)CO)CC3OC1CC(N)C(OC2CCCCO2)C(C)O1 (stereo not given in full),0.00871 µM (active),0.267 µM (active),0.299 µM (active),0.001 µM (active),1.2 µM (inactive),0.478 µM (active),0.853 µM (active),0.918 µM (active),0.0366 µM (active),0.0802 µM (active),0.807 µM (active),0.0461 µM (active),0.402 µM (active),1.56 µM (inactive),0.541 µM (active),0.23 µM (active),0.417 µM (active),0.785 µM (active),0.664 µM (active),0.324 µM (active)
